Test results reported in US12661410B2, “Compounds for targeted degradation of RET” (C4 Therapeutics, Inc., priority 2020, dated 2026).
Substitutions are numbered along the chain they refer to. Read-outs that look alike come from different tables or passages of the source.

How the values were obtained:
RET(KD: 658-1114 G810R) = biological target: T1, RET(KD: 658-1114 G810R) (Homo sapiens, UniProt P07949, G810R); test: HiBiT-Degradation, RET G810R degradation assay (Nano-Glo HiBiT Lytic), 293T.165 cells; format: cell-based; conditions: for Emax / DC50: 6.0 hours; for Emax: % remaining protein, read-out: 293T.165 RET(KD: 658-1114 G810R) 6.0 hours (Emax); for DC50: read-out: 293T.165 RET(KD: 658-1114 G810R) 6.0 hours (DC50)
T1 construct: 658-1114; expressed in transfected cells; host or cells: 293T.165 (293T cells, generated in-house)
T1 sequence (P07949 658-1114 G810R): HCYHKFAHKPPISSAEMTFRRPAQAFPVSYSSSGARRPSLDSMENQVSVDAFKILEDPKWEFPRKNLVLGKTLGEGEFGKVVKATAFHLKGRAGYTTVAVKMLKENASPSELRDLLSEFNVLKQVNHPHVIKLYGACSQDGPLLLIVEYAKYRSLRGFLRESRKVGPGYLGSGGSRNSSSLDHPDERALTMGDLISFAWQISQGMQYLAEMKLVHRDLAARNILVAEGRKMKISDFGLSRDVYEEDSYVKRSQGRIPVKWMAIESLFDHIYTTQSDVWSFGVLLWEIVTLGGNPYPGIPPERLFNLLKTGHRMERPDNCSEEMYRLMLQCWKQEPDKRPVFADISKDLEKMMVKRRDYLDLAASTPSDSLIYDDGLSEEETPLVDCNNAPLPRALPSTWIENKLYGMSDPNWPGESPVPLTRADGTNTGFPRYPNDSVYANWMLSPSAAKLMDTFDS
Procedure, shortened: (§1)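 Degradation quantified by HiBiT lytic luminescence in 293T cells expressing tagged WT or G810R RET kinase domain after 6 h dosing up to 10 μM; DC50 and Emax fitted.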

RET (658-1114) = biological target: T2, RET (658-1114) (Homo sapiens, UniProt P07949); test: HiBiT-Degradation, RET wild-type degradation assay (Nano-Glo HiBiT Lytic), 293T.144 cells; format: cell-based; conditions: HiBiT-Degradation; for DC50 / Emax: 6.0 hours; for DC50: read-out: 293T.144 RET (658-1114) 6.0 hours (DC50); for Emax: read-out: 293T.144 RET (658-1114) 6.0 hours (Emax)
T2 construct: 658-1114; expressed in transfected cells; host or cells: 293T.144 (293T cells, generated in-house)
T2 sequence (P07949 658-1114): T1 sequence (P07949 658-1114 G810R) with R153G
Procedure, shortened: as §1

[1] = half-maximal degradation concentration

Row | Emax (RET(KD: 658-1114 G810R)) [%] | DC50 (RET(KD: 658-1114 G810R); [1]) [nM] | 293T.165 RET(KD: 658-1114 G810R) 6.0 hours (Emax) (RET(KD: 658-1114 G810R); HiBiT-Degradation) | 293T.165 RET(KD: 658-1114 G810R) 6.0 hours (IP) [nM] (RET(KD: 658-1114 G810R); HiBiT-Degradation) | DC50 (RET(KD: 658-1114 G810R); HiBiT-Degradation) [nM] | 293T.144 RET (658-1114) 6.0 hours (IP) [nM] (RET (658-1114)) | DC50 (RET (658-1114)) [nM] | Emax (RET (658-1114)) [%] | SMILES
1 | < 50 | < 100 | +++ (<50% = +++) | ++++ (< 50 nM = ++++) | < 100 | ++++ (< 50 nM = ++++) | < 50 | < 30 | N#Cc1cnn2cc(-c3cnn(C4CCN(C(=O)CN5CCC(c6ccc(NC7CCC(=O)NC7=O)cc6F)CC5)CC4)c3)nc(-c3ccc(N4CCN(C(=O)Cc5ccc(F)cn5)CC4)nc3)c12 (stereo not drawn) [Compound 51, 6-[1-[1-[2-[4-[4-[(2,6-dioxo-3-piperidyl)amino]-2-fluoro-phenyl]-1-piperidyl]acetyl]-4-piperidyl]pyrazol-4-yl]-4-[6-[4-[2-(5-fluoro-2-pyridyl)acetyl]piperazin-1-yl]-3-pyridyl]pyrazolo[1,5-a]pyrazine-3-carbonitrile]
2 | < 50 | < 100 | +++ (<50% = +++) | ++++ (< 50 nM = ++++) | < 100 | ++++ (< 50 nM = ++++) | < 50 | < 30 | N#Cc1cnn2cc(-c3ccc(N4CCN(C(=O)CN5CCC(c6ccc(NC7CCC(=O)NC7=O)cc6F)CC5)CC4)cc3)nc(-c3ccc(N4CCN(C(=O)Cc5ccc(F)cn5)CC4)nc3)c12 (stereo not drawn) [Compound 52, 6-[4-[4-[2-[4-[4-[(2,6-dioxo-3-piperidyl)amino]-2-fluoro-phenyl]-1-piperidyl]acetyl]piperazin-1-yl]phenyl]-4-[6-[4-[2-(5-fluoro-2-pyridyl)acetyl]piperazin-1-yl]-3-pyridyl]pyrazolo[1,5-a]pyrazine-3-carbonitrile]
3 | < 50 | < 50 | +++ (<50% = +++) | ++++ (< 50 nM = ++++) | < 50 | ++++ (< 50 nM = ++++) | < 50 | < 30 | CCC1(C(=O)NC(C)C)CCN(c2ccc(-c3nc(-c4cnn(C5CCN(C(=O)CN6CCC(c7ccc(NC8CCC(=O)NC8=O)cc7F)CC6)CC5)c4)cn4ncc(C#N)c34)cn2)CC1 (stereo not drawn) [Compound 53, 1-[5-[3-cyano-6-[1-[1-[2-[4-[4-[(2,6-dioxo-3-piperidyl)amino]-2-fluoro-phenyl]-1-piperidyl]acetyl]-4-piperidyl]pyrazol-4-yl]pyrazolo[1,5-a]pyrazin-4-yl]-2-pyridyl]-4-ethyl-N-isopropyl-piperidine-4-carboxamide]
4 | < 50 | < 50 | +++ (<50% = +++) | ++++ (< 50 nM = ++++) | < 50 | ++++ (< 50 nM = ++++) | < 50 | < 30 | CCC1(NC(=O)C(C)C)CCN(c2ccc(-c3cc(-c4cnn(C5CCN(C(=O)CN6CCC(c7ccc(NC8CCC(=O)NC8=O)cc7F)CC6)CC5)c4)cn4ncc(C#N)c34)cn2)CC1 (stereo not drawn) [Compound 55, N-[1-[5-[3-cyano-6-[1-[1-[2-[4-[4-[(2,6-dioxo-3-piperidyl)amino]-2-fluoro-phenyl]-1-piperidyl]acetyl]-4-piperidyl]pyrazol-4-yl]pyrazolo[1,5-a]pyridin-4-yl]-2-pyridyl]-4-ethyl-4-piperidyl]-2-methyl-propanamide]
5 | < 50 | < 100 | +++ (<50% = +++) | ++++ (< 50 nM = ++++) | < 100 | ++++ (< 50 nM = ++++) | < 50 | < 30 | CC(C)NC(=O)C1(C(C)C)CCN(c2ccc(-c3cc(-c4cnn(C5CCN(C(=O)CN6CCC(c7ccc(NC8CCC(=O)NC8=O)cc7F)CC6)CC5)c4)cn4ncc(C#N)c34)cn2)CC1 (stereo not drawn) [Compound 56, 1-[5-[3-cyano-6-[1-[1-[2-[4-[4-[(2,6-dioxo-3-piperidyl)amino]-2-fluoro-phenyl]-1-piperidyl]acetyl]-4-piperidyl]pyrazol-4-yl]pyrazolo[1,5-a]pyridin-4-yl]-2-pyridyl]-N,4-diisopropyl-piperidine-4-carboxamide]
6 | < 30 | < 50 | ++++ (< 30% = ++++) | ++++ (< 50 nM = ++++) | < 50 | ++++ (< 50 nM = ++++) | < 50 | < 30 | N#Cc1cnn2cc(-c3cnn([C@H]4CC[C@H](CCN5CCC(c6ccc(NC7CCC(=O)NC7=O)cc6F)CC5)CC4)c3)cc(-c3ccc(N4CCN(C(=O)Cc5ccc(F)cn5)CC4)nc3)c12 (stereo partly drawn) [Compound 57, 6-[1-[(1r,4r)-4-[2-[4-[4-[(2,6-dioxo-3-piperidyl)amino]-2-fluoro-phenyl]-1-piperidyl]ethyl]cyclohexyl]pyrazol-4-yl]-4-[6-[4-[2-(5-fluoro-2-pyridyl)acetyl]piperazin-1-yl]-3-pyridyl]pyrazolo[1,5-a]pyridine-3-carbonitrile]
7 | < 50 | < 50 | +++ (<50% = +++) | ++++ (< 50 nM = ++++) | < 50 | ++++ (< 50 nM = ++++) | < 50 | < 30 | CCC1(C(=O)NC(C)C)CCN(c2ccc(-c3cc(-c4cnn(C5CCN(C(=O)CN6CCC(c7ccc(NC8CCC(=O)NC8=O)cc7F)CC6)CC5)c4)cn4ncc(C#N)c34)cc2)CC1 (stereo not drawn) [Compound 58, 1-[4-[3-cyano-6-[1-[1-[2-[4-[4-[(2,6-dioxo-3-piperidyl)amino]-2-fluoro-phenyl]-1-piperidyl]acetyl]-4-piperidyl]pyrazol-4-yl]pyrazolo[1,5-a]pyridin-4-yl]phenyl]-4-ethyl-N-isopropyl-piperidine-4-carboxamide]
8 | < 50 | < 100 | +++ (<50% = +++) | ++++ (< 50 nM = ++++) | < 100 | ++++ (< 50 nM = ++++) | < 50 | < 30 | CCC1(C(=O)NC(C)C)CCN(c2ncc(-c3cc(-c4cnn(C5CCN(C(=O)CN6CCC(c7ccc(NC8CCC(=O)NC8=O)cc7F)CC6)CC5)c4)cn4ncc(C#N)c34)cn2)CC1 (stereo not drawn) [Compound 59, 1-[5-[3-cyano-6-[1-[1-[2-[4-[4-[(2,6-dioxo-3-piperidyl)amino]-2-fluoro-phenyl]-1-piperidyl]acetyl]-4-piperidyl]pyrazol-4-yl]pyrazolo[1,5-a]pyridin-4-yl]pyrimidin-2-yl]-4-ethyl-N-isopropyl-piperidine-4-carboxamide]

Row | SMILES | Emax (RET(KD: 658-1114 G810R)) [%] | DC50 (RET(KD: 658-1114 G810R); [1]) [nM] | 293T.165 RET(KD: 658-1114 G810R) 6.0 hours (Emax) (RET(KD: 658-1114 G810R); HiBiT-Degradation) | 293T.165 RET(KD: 658-1114 G810R) 6.0 hours (IP) [nM] (RET(KD: 658-1114 G810R); HiBiT-Degradation) | DC50 (RET(KD: 658-1114 G810R); HiBiT-Degradation) [nM] | 293T.144 RET (658-1114) 6.0 hours (IP) [nM] (RET (658-1114)) | DC50 (RET (658-1114)) [nM] | Emax (RET (658-1114)) [%]
9 | N#Cc1cnn2cc(-c3ccc(N4CCN(C(=O)CN5CCC(c6ccc(NC7CCC(=O)NC7=O)cc6F)CC5)CC4)cc3)nc(-c3ccc(N4CC5CC(C4)N5Cc4ccccc4)nc3)c12 (stereo not drawn) [Compound 54, 4-[6-(6-benzyl-3,6-diazabicyclo[3.1.1]heptan-3-yl)-3-pyridyl]-6-[4-[4-[2-[4-[4-[(2,6-dioxo-3-piperidyl)amino]-2-fluoro-phenyl]-1-piperidyl]acetyl]piperazin-1-yl]phenyl]pyrazolo[1,5-a]pyrazine-3-carbonitrile] | < 30 | < 100 | ++++ (< 30% = ++++) | ++++ (< 50 nM = ++++) | < 100 | ++++ (< 50 nM = ++++) | < 50 | < 30
